Measured values published in patent US20230286958A1, “PLASMA KALLIKREIN INHIBITORS” (Merck Sharp & Dohme LLC, priority 2020, published 2023).

What was measured:
Human plasma kallikrein = Human plasma kallikrein (Homo sapiens (Human), UniProt P03952); test: Kallikrein Assay (fluorogenic substrate Acetyl-K-P-R-AFC); format: biochemical; conditions: Plasma Kallikrein (PKal)
How it was run: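 Ki is derived from IC50 with the Cheng-Prusoff equation, and IC50 from the inflection point of a four-parameter logistic curve. The rate of AFC release is read with 0.5 nM purified enzyme and […] substrate at room temperature or 37 °C.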

human Factor XIa = human Factor XIa (Homo sapiens (Human), UniProt P03951); test: Factor XIa Assay (fluorogenic substrate GPR-AFC); format: biochemical; conditions: Factor XIa (FXIa)
Chain of human Factor XIa (P03951 388-625 limits assumed): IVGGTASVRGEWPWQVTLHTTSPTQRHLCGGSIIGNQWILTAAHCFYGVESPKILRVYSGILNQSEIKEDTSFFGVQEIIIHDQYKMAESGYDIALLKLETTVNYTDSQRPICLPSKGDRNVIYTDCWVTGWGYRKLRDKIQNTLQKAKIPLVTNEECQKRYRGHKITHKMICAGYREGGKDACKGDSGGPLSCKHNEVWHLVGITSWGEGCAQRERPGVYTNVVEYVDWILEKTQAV
Chain of human Factor XIa (P03951 19-387 partner limits assumed): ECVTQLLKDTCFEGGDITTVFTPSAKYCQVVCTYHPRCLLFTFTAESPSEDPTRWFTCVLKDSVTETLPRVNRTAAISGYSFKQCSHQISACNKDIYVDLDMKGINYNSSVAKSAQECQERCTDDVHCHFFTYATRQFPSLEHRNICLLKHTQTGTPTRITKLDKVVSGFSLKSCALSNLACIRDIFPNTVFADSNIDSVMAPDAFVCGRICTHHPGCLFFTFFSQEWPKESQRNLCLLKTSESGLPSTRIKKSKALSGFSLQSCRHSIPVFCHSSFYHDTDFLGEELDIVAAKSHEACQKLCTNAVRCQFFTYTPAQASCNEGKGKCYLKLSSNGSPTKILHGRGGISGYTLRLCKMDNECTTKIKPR

Chain of Human plasma kallikrein (P03952 391-638): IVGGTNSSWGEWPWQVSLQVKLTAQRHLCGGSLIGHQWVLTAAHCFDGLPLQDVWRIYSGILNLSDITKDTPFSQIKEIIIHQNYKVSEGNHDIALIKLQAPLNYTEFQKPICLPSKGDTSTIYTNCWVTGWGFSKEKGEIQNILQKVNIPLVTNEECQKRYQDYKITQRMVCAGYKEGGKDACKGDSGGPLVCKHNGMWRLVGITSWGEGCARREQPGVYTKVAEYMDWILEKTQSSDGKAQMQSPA
Chain of Human plasma kallikrein (P03952 20-390 partner): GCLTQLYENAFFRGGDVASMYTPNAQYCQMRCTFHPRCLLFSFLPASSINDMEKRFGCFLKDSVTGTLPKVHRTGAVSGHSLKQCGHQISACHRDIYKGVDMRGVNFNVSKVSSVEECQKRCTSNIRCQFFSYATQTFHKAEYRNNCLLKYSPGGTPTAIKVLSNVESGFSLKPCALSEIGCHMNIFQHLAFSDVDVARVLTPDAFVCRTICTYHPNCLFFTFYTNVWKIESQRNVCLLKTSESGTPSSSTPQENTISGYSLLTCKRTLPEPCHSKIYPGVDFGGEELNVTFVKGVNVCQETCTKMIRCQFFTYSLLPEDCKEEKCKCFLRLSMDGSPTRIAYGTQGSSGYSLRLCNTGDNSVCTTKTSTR

Row | SMILES | IC50 (Human plasma kallikrein) [nM] | IC50 (human Factor XIa) [nM]
1 | Cc1ncc(-c2c(C(F)F)ccc(Cl)c2F)nc1C(=O)Nc1cnn(C(C)c2ccc(N3CC4CC4C3=O)nc2)c1 (single isomer, unassigned) [Example 74, 6-(3-Chloro-6-(difluoromethyl)-2-fluorophenyl)-3-methyl-N-(1-((S or R)-1-(6-((1R,5S or 1S,5R)-2-oxo-3-azabicyclo[3.1.0]hexan-3-yl)pyridin-3-yl)ethyl)-1H-pyrazol-4-yl)pyrazine-2-carboxamide] | 14.6 | 7600
2 | Cc1ncc(-c2c(C(F)F)ccc(Cl)c2F)nc1C(=O)Nc1cnn(C(C)c2ccc(N3CC4CC4C3=O)nc2)c1 (single isomer, unassigned) [Example 75, 6-(3-Chloro-6-(difluoromethyl)-2-fluorophenyl)-3-methyl-N-(1-((R or S)-1-(6-((1R,5S or 1S,5R)-2-oxo-3-azabicyclo[3.1.0]hexan-3-yl)pyridin-3-yl)ethyl)-1H-pyrazol-4-yl)pyrazine-2-carboxamide] | 4.8 | > 10000
3 | Cc1ncc(-c2c(C(F)F)ccc(Cl)c2F)nc1C(=O)Nc1cnn(C(C)c2ccc(N3CC4CC4C3=O)nc2)c1 (single isomer, unassigned) [Example 76, 6-(3-Chloro-6-(difluoromethyl)-2-fluorophenyl)-3-methyl-N-(1-((S or R)-1-(6-((1S,5R or 1R,5S)-2-oxo-3-azabicyclo[3.1.0]hexan-3-yl)pyridin-3-yl)ethyl)-1H-pyrazol-4-yl)pyrazine-2-carboxamide] | 43 | > 10000
4 | CC(c1cnc(N2C[C@H]3C[C@H]3C2=O)c(C(F)F)c1)n1cc(NC(=O)c2cncc(-c3c(C(F)F)ccc(Cl)c3F)n2)cn1 (single isomer, unassigned) [Example 77, 6-(3-Chloro-6-(difluoromethyl)-2-fluorophenyl)-N-(1-((S or R)-1-(5-(difluoromethyl)-6-((1R,5S)-2-oxo-3-azabicyclo[3.1.0]hexan-3-yl)pyridin-3-yl)ethyl)-1H-pyrazol-4-yl)pyrazine-2-carboxamide] | 12.6 | 7920
5 | CC(c1cnc(N2C[C@H]3C[C@H]3C2=O)c(C(F)F)c1)n1cc(NC(=O)c2cncc(-c3c(C(F)F)ccc(Cl)c3F)n2)cn1 (single isomer, unassigned) [Example 78, 6-(3-Chloro-6-(difluoromethyl)-2-fluorophenyl)-N-(1-((R or S)-1-(5-(difluoromethyl)-6-((1R,5S)-2-oxo-3-azabicyclo[3.1.0]hexan-3-yl)pyridin-3-yl)ethyl)-1H-pyrazol-4-yl)pyrazine-2-carboxamide] | 2.7 | > 10000
6 | Cc1nc(N2C[C@H]3C[C@H]3C2=O)ncc1C(C)n1cc(NC(=O)c2nc(-c3c(C(F)F)ccc(Cl)c3F)cc(=O)n2C)cn1 (single isomer, unassigned) [Example 79, 4-(3-Chloro-6-(difluoromethyl)-2-fluorophenyl)-1-methyl-N-(1-((S or R)-1-(4-methyl-2-((1R,5S)-2-oxo-3-azabicyclo[3.1.0]hexan-3-yl)pyrimidin-5-yl)ethyl)-1H-pyrazol-4-yl)-6-oxo-1,6-dihydropyrimidine-2-carboxamide] | 0.5 | 57

Other lines, results leading:

Row | IC50 (Human plasma kallikrein) [nM] | IC50 (human Factor XIa) [nM] | SMILES
7 | 25.3 | 284 | Cc1nc(N2C[C@H]3C[C@H]3C2=O)ncc1C(C)n1cc(NC(=O)c2nc(-c3c(C(F)F)ccc(Cl)c3F)cc(=O)n2C)cn1 (single isomer, unassigned) [Example 80, 4-(3-Chloro-6-(difluoromethyl)-2-fluorophenyl)-1-methyl-N-(1-((R or S)-1-(4-methyl-2-((1R,5S)-2-oxo-3-azabicyclo[3.1.0]hexan-3-yl)pyrimidin-5-yl)ethyl)-1H-pyrazol-4-yl)-6-oxo-1,6-dihydropyrimidine-2-carboxamide]
8 | 26.2 | > 10000 | Cc1ncc(-c2c(C(F)F)ccc(Cl)c2F)nc1C(=O)Nc1cnn(C(C)c2cnc(N3CCC(O)C3=O)nc2)c1 (single isomer, unassigned) [Example 87, 6-(3-Chloro-6-(difluoromethyl)-2-fluorophenyl)-N-(1-((S or R)-1-(2-((R or S)-3-hydroxy-2-oxopyrrolidin-1-yl)pyrimidin-5-yl)ethyl)-1H-pyrazol-4-yl)-3-methylpyrazine-2-carboxamide]
9 | 31.3 | > 10000 | CC(c1ccc(N2C[C@H]3C[C@H]3C2=O)nc1)n1cc(NC(=O)c2cncc(-c3c(C#N)ccc(Cl)c3F)n2)cn1 (single isomer, unassigned) [Example 89, 6-(3-Chloro-6-cyano-2-fluorophenyl)-N-(1-((S or R)-1-(6-((1R,5S)-2-oxo-3-azabicyclo[3.1.0]hexan-3-yl)pyridin-3-yl)ethyl)-1H-pyrazol-4-yl)pyrazine-2-carboxamide]
10 | 13.7 | > 10000 | CC(c1ccc(N2C[C@H]3C[C@H]3C2=O)nc1)n1cc(NC(=O)c2cncc(-c3c(C#N)ccc(Cl)c3F)n2)cn1 (single isomer, unassigned) [Example 90, 6-(3-Chloro-6-cyano-2-fluorophenyl)-N-(1-((R or S)-1-(6-((1R,SS)-2-oxo-3-azabicyclo[3.1.0]hexan-3-yl)pyridin-3-yl)ethyl)-1H-pyrazol-4-yl)pyrazine-2-carboxamide]
11 | 1.3 | > 10000 | Cc1cc(N2C[C@H]3C[C@H]3C2=O)ccc1C(C)n1cc(NC(=O)c2nc(-c3c(C(F)F)ccc(Cl)c3F)cnc2C)cn1 (single isomer, unassigned) [Example 97, 6-(3-Chloro-6-(difluoromethyl)-2-fluorophenyl)-3-methyl-N-(1-((S or R)-1-(2-methyl-4-((1R,5S)-2-oxo-3-azabicyclo[3.1.0]hexan-3-yl)phenyl)ethyl)-1H-pyrazol-4-yl)pyrazine-2-carboxamide]
12 | 1.4 | > 10000 | Cc1cc(N2C[C@H]3C[C@H]3C2=O)ccc1C(C)n1cc(NC(=O)c2cncc(-c3c(C(F)F)ccc(Cl)c3F)n2)cn1 (single isomer, unassigned) [Example 98, 6-(3-Chloro-6-(difluoromethyl)-2-fluorophenyl)-N-(1-((S or R)-1-(2-methyl-4-((1R,5S)-2-oxo-3-azabicyclo[3.1.0]hexan-3-yl)phenyl)ethyl)-1H-pyrazol-4-yl)pyrazine-2-carboxamide]
13 | 49.1 | 2880 | Cc1cc(N2C[C@H]3C[C@H]3C2=O)ccc1C(C)n1cc(NC(=O)c2cncc(-c3c(C(F)F)ccc(Cl)c3F)n2)cn1 (single isomer, unassigned) [Example 99, 6-(3-Chloro-6-(difluoromethyl)-2-fluorophenyl)-N-(1-((R or S)-1-(2-methyl-4-((1R,5S)-2-oxo-3-azabicyclo[3.1.0]hexan-3-yl)phenyl)ethyl)-1H-pyrazol-4-yl)pyrazine-2-carboxamide]
14 | 1.7 | 2000 | Cc1nc(C(C)n2cc(NC(=O)c3nc(-c4c(C(F)F)ccc(Cl)c4F)cnc3C(F)F)cn2)cnc1N1C[C@H]2C[C@H]2C1=O (single isomer, unassigned) [Example 100, 6-(3-Chloro-6-(difluoromethyl)-2-fluorophenyl)-3-(difluoromethyl)-N-(1-((S or R)-1-(6-methyl-5-((1R,5S)-2-oxo-3-azabicyclo[3.1.0]hexan-3-yl)pyrazin-2-yl)ethyl)-1H-pyrazol-4-yl)pyrazine-2-carboxamide]
